Laboratory results published in patent publication US4657913A, “Trifluoro- quinoline -3-carboxylic acids and their use as anti-bacterial agents” (Warner-Lambert Company, priority 1985, dated 1987).
Converted amounts (≈) assume the structure as drawn.

Key:
Test in all cases: microtitration dilution method, in vitro antibacterial activity (MIC)
Assay type in all cases: cell-based
[1] = test system: Streptococcus faecalis MGH-2; conditions: Enterococcus faecalis, MGH2, read-out: Minimal Inhibitory Concentration MIC
Source text: (§1) The compounds of the invention display antibacterial activity when tested by the microtitration dilution method as described in Heifetz, et al, Antimicr. Agents & Chemoth., 6, 124 (1974), which is incorporated herein by reference.
(§2) By use of the above referenced method, the following minimum inhibitory concentration values (MICs in μg/ml) were obtained for representative compounds of the invention.

[2] = test system: Staphylococcus aureus UC-76; conditions: UC76, read-out: Minimal Inhibitory Concentration MIC
Source text: as §1, §2

[3] = test system: Staphlococcus aureus H 228; conditions: read-out: Minimal Inhibitory Concentration MIC
Source text: as §1, §2

[4] = test system: Escherichia coli Vogel; conditions: read-out: Minimal Inhibitory Concentration MIC
Source text: as §1, §2

[5] = test system: Proteus rettgeri M 1771; conditions: Providencia rettgeri, M1771, read-out: Minimal Inhibitory Concentration MIC
Source text: as §1, §2

[6] = test system: Klebsiella pneumoniae MGH-2; conditions: MGH2, read-out: Minimal Inhibitory Concentration MIC
Source text: as §1, §2

[7] = test system: Enterobacter cloacae MA 2646; conditions: MA2646, read-out: Minimal Inhibitory Concentration MIC
Source text: as §1, §2

[8] = test system: Streptococcus pneumoniae SV-1; conditions: SV1, read-out: Minimal Inhibitory Concentration MIC
Source text: as §1, §2

[9] = test system: Pseudomonas aeruginosa UI-18; conditions: UI18, read-out: Minimal Inhibitory Concentration MIC
Source text: as §1, §2

[10] = test system: Streptococcus pyogenes C-203; conditions: C203, read-out: Minimal Inhibitory Concentration MIC
Source text: as §1, §2

| Compound | MIC [1] [µg/mL] | MIC [2] [µg/mL] | MIC [3] [µg/mL] | MIC [4] [µg/mL] | MIC [5] [µg/mL] | MIC [6] [µg/mL] | MIC [7] [µg/mL] | MIC [8] [µg/mL] | MIC [9] [µg/mL] | MIC [10] [µg/mL] |
| --- | --- | --- | --- | --- | --- | --- | --- | --- | --- | --- |
| CCNCC1CCN(c2c(F)c(F)c3c(=O)c(C(=O)O)cn(C4CC4)c3c2F)C1 (centres unmarked) [Ex. 2A, 1-Cyclopropyl-7-[3-[(ethylamino)methyl]-1-pyrrolidinyl]-5,6,8-trifluoro-1,4-dihydro-4-oxo-3-quinolinecarboxylic acid] | 0.2 (≈ 0.489 µM) | 0.025 (≈ 0.0611 µM) | 0.2 (≈ 0.489 µM) | 0.2 (≈ 0.489 µM) | 1.6 (≈ 3.91 µM) | 0.4 (≈ 0.977 µM) | 0.4 (≈ 0.977 µM) | 0.2 (≈ 0.489 µM) | 3.1 (≈ 7.57 µM) | 0.1 (≈ 0.244 µM) |
| CCn1cc(C(=O)O)c(=O)c2c(F)c(F)c(N3CCC(CN)C3)c(F)c21 (centres unmarked) [Ex. 1A, 7-[3-(Aminomethyl)-1-pyrrolidinyl]-1-ethyl-5,6,8-trifluoro-1,4-dihydro-4-oxo-3-quinolinecarboxylic acid] | 0.8 (≈ 2.17 µM) | 0.8 (≈ 2.17 µM) | 1.6 (≈ 4.33 µM) | 0.8 (≈ 2.17 µM) | 3.1 (≈ 8.39 µM) | 0.8 (≈ 2.17 µM) | 0.8 (≈ 2.17 µM) | ≤ 0.1 | 3.1 (≈ 8.39 µM) | ≤ 0.1 |
| CCn1cc(C(=O)O)c(=O)c2c(F)c(F)c(N3CCC4(CCN(C)C4)C3)c(F)c21 (centres unmarked) [Ex. 1B, 1-Ethyl-5,6,8-trifluoro-1,4-dihydro-7-(7-methyl-2,7-diazaspiro[4.4]nonan-2-yl)-4-oxo-3-quinolinecarboxylic acid] | 1.6 (≈ 3.91 µM) | 0.2 (≈ 0.489 µM) | 0.8 (≈ 1.95 µM) | 0.8 (≈ 1.95 µM) | 6.3 (≈ 15.4 µM) | 1.6 (≈ 3.91 µM) | 0.8 (≈ 1.95 µM) | 0.8 (≈ 1.95 µM) | 6.3 (≈ 15.4 µM) | 1.6 (≈ 3.91 µM) |
| CCn1cc(C(=O)O)c(=O)c2c(F)c(F)c(N3CCC(CNC)C3)c(F)c21 (centres unmarked) [Ex. 1C, 1-Ethyl-5,6,8-trifluoro-1,4-dihydro-7-[3-[(methylamino)methyl]-1-pyrrolidinyl]-4-oxo-3-quinolinecarboxylic acid] | 0.8 (≈ 2.09 µM) | 0.05 (≈ 0.13 µM) | 0.8 (≈ 2.09 µM) | 0.4 (≈ 1.04 µM) | 6.3 (≈ 16.4 µM) | 0.8 (≈ 2.09 µM) | 1.6 (≈ 4.17 µM) | 0.4 (≈ 1.04 µM) | 3.1 (≈ 8.09 µM) | 0.2 (≈ 0.522 µM) |
| CCNCC1CCN(c2c(F)c(F)c3c(=O)c(C(=O)O)cn(CC)c3c2F)C1 (centres unmarked) [Ex. 1D, 1-Ethyl-7-[3-[(ethylamino)methyl]-1-pyrrolidinyl]-5,6,8-trifluoro-1,4-dihydro-4-oxo-3-quinolinecarboxylic acid] | 0.2 (≈ 0.503 µM) | 0.013 (≈ 0.0327 µM) | 0.4 (≈ 1.01 µM) | 0.4 (≈ 1.01 µM) | 0.8 (≈ 2.01 µM) | 0.8 (≈ 2.01 µM) | 0.4 (≈ 1.01 µM) | 0.2 (≈ 0.503 µM) | 6.3 (≈ 15.9 µM) | 0.2 (≈ 0.503 µM) |
